Measurements published in patent US4614827A, “Method for isolating vinyl salt compounds from aqueous solutions” (Rohm GmbH, priority 1983, dated 1986).

Assay: Water solubility at 20° C.
From the text: Of special interest are the salts of acrylic and methacrylic acid and also of maleic acid, fumaric acid, and itaconic acid, and more particularly the alkali metal salts, and especially the sodium, potassium, and lithium salts; the alkaline earth metal salts, and especially the magnesium, calcium, strontium, and barium salts; the salts of subgroups I and II of the periodic table, and especially the copper and zinc salts; the salts of main and subgroup IV (Ge, Sn, Pb, Ti, Zr, Hf), and especially the germanium, tin, lead, titanium, and zirconium salts; the salts of subgroup VIII (Fe, Ru, Os, Co, Rh, Ir, Ni, Pd, Pt), and especially the iron, cobalt, and nickel salts; the salts of main and subgroups V ((As, Sb, Bi, V, Nb, Ta) and of subgroup VII (Mn, Tc, Re), and especially the antimony, bismuth, vanadium, and manganese salts; and the ammonium salts, including those derived from ammonium cations of the formula [drawing 1] wherein R1 and R2 are hydrogen or an alkyl group having from 1 to 18 carbon atoms, and preferably from 1 to 5 carbon atoms, and R3 and R4 are hydrogen or an alkyl group having from 1 to 18 carbon atoms, and preferably from 1 to 6 carbon atoms, or wherein R3 and R4, optionally with inclusion of one or two further hetero atoms such as nitrogen, oxygen, or sulfur, form a five- or six-membered heterocyclic system.

SMILES | Water solubility at 20° C. [g/salt/100 g water]
C=C(C)C(=O)O [Barium dimethacrylate] | 40.5
C=C(C)C(=O)[O-].[Li+] [Lithium methacrylate] | 87.5
C=C(C)C(=O)[O-].[K+] [Potassium methacrylate] | 101.8
C=C(C)C(=O)[O-].[Na+] [Sodium methacrylate] | 95.3
C=C(C)C(=O)O [Strontium dimethacrylate] | 27.5

Assay: Water solubility of spray dried product (qualitative)
Type: physicochemical
From the text: Clear beads, some of them vitrified, were obtained. The major portion of these ranged in size from 10 to 20 microns; the largest particles were about 80 microns. The residual moisture of the spray dried material ranged from 0.35 to 0.55 percent and the bulk density from 540 to 600 grams/liter. Higher bulk densities can be obtained by increasing the operating temperature. Because of the good water solubility of the products being dried, the spray drying apparatus can be cleaned quite easily.
Clear beads in the range of 10 to 100 microns are obtained. The residual moisture of the spray dried material is less than 0.3%.

SMILES | water solubility (in words)
C=C(C)C(=O)[O-].[Na+] [Sodium methacrylate] | readily water soluble
